Source: patent publication US7601728B2, “Bicyclic pyrrole derivatives” (Dainippon Sumitomo Pharma Co., Ltd., priority 2004, dated 2009)
Structures can show the parent of a compound that is named as a salt.

biological target: T1, Human DPP IV (Homo sapiens, UniProt P27487); assay: In Vitro DPP-IV Inhibitory Effect Measurement Test; format: biochemical; settings: human serum containing DPP-IV enzyme; substrate Glycyl-L-Proline 4-Methyl-Coumaryl-7-Amide 10 to 100 μM; room temperature; fluorescence 360/460 nm; read-out: Human DPP IV inhibiting activity IC50
T1 construct: Human serum containing DPP-IV enzyme was diluted finally 9- to 20-fold with assay buffer; from tissue; host or cells: human serum
Procedure: In Vitro DPP-IV Inhibitory Effect Measurement Test
Human serum containing DPP-IV enzyme was diluted finally 9- to 20-fold with assay buffer and added to a microassay plate. Each of solutions of each test compound having various concentrations was added thereto, followed by adding thereto a substrate (Glycyl-L-Proline 4-Methyl-Coumaryl-7-Amide, Peptide Laboratories Co., Ltd.) to a final concentration of 10 to 100 μM, and the reaction was carried out at room temperature. Acetic acid was added thereto to a final concentration of 0.5% to terminate the reaction, and the intensity of fluorescence at an excitation wavelength of 360 nm and a measuring wavelength of 460 nm was measured by the use of a fluorescent plate reader.

T1 sequence (P27487 39-766 limits assumed): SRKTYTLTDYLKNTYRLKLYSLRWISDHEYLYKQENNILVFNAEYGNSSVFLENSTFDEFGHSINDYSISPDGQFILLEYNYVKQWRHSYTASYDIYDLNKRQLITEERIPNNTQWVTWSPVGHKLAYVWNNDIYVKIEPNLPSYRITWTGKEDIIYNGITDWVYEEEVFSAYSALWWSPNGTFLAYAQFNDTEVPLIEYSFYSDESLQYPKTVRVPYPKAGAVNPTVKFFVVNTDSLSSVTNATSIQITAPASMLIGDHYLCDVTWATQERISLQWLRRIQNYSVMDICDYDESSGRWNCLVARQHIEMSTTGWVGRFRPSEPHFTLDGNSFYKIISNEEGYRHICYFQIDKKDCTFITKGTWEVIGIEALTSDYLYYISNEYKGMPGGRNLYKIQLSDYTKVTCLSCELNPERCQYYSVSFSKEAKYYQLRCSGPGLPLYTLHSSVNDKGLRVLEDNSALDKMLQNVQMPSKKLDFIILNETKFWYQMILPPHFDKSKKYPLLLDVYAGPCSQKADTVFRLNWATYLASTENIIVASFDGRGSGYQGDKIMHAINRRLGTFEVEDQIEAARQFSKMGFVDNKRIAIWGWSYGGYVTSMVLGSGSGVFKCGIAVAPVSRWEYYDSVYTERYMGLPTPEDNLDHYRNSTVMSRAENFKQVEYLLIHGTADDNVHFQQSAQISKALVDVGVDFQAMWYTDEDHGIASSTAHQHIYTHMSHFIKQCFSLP

| Compound | IC50 [µM] |
| --- | --- |
| CCOc1cccc(Oc2nc3c(C#N)c(N4CCC[C@@H](N)C4)n(Cc4ccccc4Cl)c3c(=O)n2C)c1 [Example 1, 6-[(3R)-3-Aminopiperidin-1-yl]-5-(2-chlorobenzyl)-2-(3-ethoxyphenoxy)-3-methyl-4-oxo-4,5-dihydro-3H-pyrrolo[3,2-d]pyrimidine-7-carbonitrile hydrochloride] | 0.076 |
| Cn1c(Oc2ccccc2C(N)=O)nc2c(C#N)c(N3CCC[C@@H](N)C3)n(Cc3ccccc3Cl)c2c1=O [Example 7, 2-{[6-(3-Aminopiperidin-1-yl)-5-(2-chlorobenzyl)-7-cyano-3-methyl-4-oxo-4,5-dihydro-3H-pyrrolo[3,2-d]pyrimidin-2-yl]oxy}benzamide hydrochloride] | 0.06 |
| CC#CCn1c(N2CCC[C@@H](N)C2)cc2c1c(=O)n(C)c(=O)n2C [Example 14] | 0.055 |
| Cn1c(=O)n(Cc2cc3ccccc3cn2)c(=O)c2c1cc(N1CCC[C@@H](N)C1)n2Cc1cc(F)ccc1Cl [Example 18] | 0.012 |
| Cn1c(=O)n(CC(=O)c2ccccc2)c(=O)c2c1cc(N1CCC[C@@H](N)C1)n2Cc1cc(F)ccc1Cl [Example 19] | 0.0071 |
| Cn1c(=O)c2c(c(C(=O)N3CCC(O)CC3)c(N3CCC[C@@H](N)C3)n2Cc2ccccc2Cl)n(C)c1=O [Example 33] | 0.012 |
| Cn1c(=O)c2c(c(C(=O)NC3CCC3)c(N3CCC[C@@H](N)C3)n2Cc2cc(F)ccc2Cl)n(C)c1=O [Example 40] | 0.0068 |
| CC(=O)c1c(N2CCC[C@@H](N)C2)n(Cc2ccccc2Cl)c2c(=O)n(C)c(=O)n(C)c12 [Example 61] | 0.085 |
| Cn1cnc2cc(N3CCC[C@@H](N)C3)n(Cc3cc(F)ccc3Cl)c2c1=O [Example 64] | 0.013 |
| Cn1cnc2c(C(=O)N3CCOCC3)c(N3CCC[C@@H](N)C3)n(Cc3cc(F)ccc3Cl)c2c1=O [Example 66] | 0.0055 |
| CCOC(=O)c1c(N)c(C#N)c(N2CCC[C@@H](N)C2)n1Cc1ccccc1Cl [Example 72, Ethyl 3-amino-5-[(3R)-3-aminopiperidin-1-yl]-1-(2-chlorobenzyl)-4-cyano-1H-pyrrole-2-carboxylate hydrochloride] | 1.2 |

The next lines start with the values.

| IC50 [µM] | Compound |
| --- | --- |
| 0.021 | Cn1c(=O)c2c(c(C#N)c(N3CCC[C@@H](N)C3)n2Cc2ccccc2Cl)n(C)c1=O [Example 2, 6-[(3R)-3-Aminopiperidin-1-yl]-5-(2-chlorobenzyl)-1,3-dimethyl-2,4-dioxo-2,3,4,5-tetrahydro-1H-pyrrolo[3,2-d]pyrimidine-7-carbonitrile hydrochloride] |
| 0.026 | Cn1c(O)nc2c(C#N)c(N3CCC[C@@H](N)C3)n(Cc3ccccc3Cl)c2c1=O [Example 3, 6-[(3R)-3-Aminopiperidin-1-yl]-5-(2-chlorobenzyl)-2-hydroxy-3-methyl-4-oxo-4,5-dihydro-3H-pyrrolo[3,2-d]pyrimidine-7-carbonitrile hydrochloride] |
| 0.028 | Cn1c(S(C)(=O)=O)nc2c(C#N)c(N3CCC[C@@H](N)C3)n(Cc3ccccc3Cl)c2c1=O [Example 4, 6-[(3R)-3-Aminopiperidin-1-yl]-5-(2-chlorobenzyl)-3-methyl-2-(methylsulfonyl)-4-oxo-4,5-dihydro-3H-pyrrolo[3,2-d]pyrimidine-7-carbonitrile hydrochloride] |
| 0.015 | Cn1c(=O)c2c(cc(N3CCC[C@@H](N)C3)n2Cc2ccccc2Cl)n(C)c1=O [Example 5, 6-(3-Aminopiperidin-1-yl)-5-(2-chlorobenzyl)-1,3-dimethyl-1H-pyrrolo[3,2-d]pyrimidine-2,4(3H,5H)-dione hydrochloride] |
| 0.0019 | Cn1c(=O)c2c(cc(N3CCC[C@@H](N)C3)n2Cc2cc(F)ccc2Cl)n(C)c1=O [Example 6, 6-(3-Aminopiperidin-1-yl)-5-(2-chloro-5-fluorobenzyl)-1,3-dimethyl-1H-pyrrolo[3,2-d]pyrimidine-2,4(3H,5H)-dione hydrochloride] |
| 0.0074 | Cn1c(=O)c2c(cc(N3CCC[C@@H](N)C3)n2Cc2ccccc2C#N)n(C)c1=O [Example 8] |
| 0.0043 | Cn1c(=O)[nH]c(=O)c2c1cc(N1CCC[C@@H](N)C1)n2Cc1cc(F)ccc1Cl [Example 20] |
| 0.044 | CCOC(=O)c1c(N2CCC[C@@H](N)C2)n(Cc2ccccc2Cl)c2c(=O)n(C)c(=O)n(C)c12 [Example 24] |
| 0.0076 | CN(C)C(=O)c1c(N2CCC[C@@H](N)C2)n(Cc2ccccc2Cl)c2c(=O)n(C)c(=O)n(C)c12 [Example 25] |
| 0.0098 | Cn1c(=O)c2c(c(C(=O)N3CCCC3)c(N3CCC[C@@H](N)C3)n2Cc2ccccc2Cl)n(C)c1=O [Example 27] |
| 0.0075 | Cn1c(=O)c2c(c(C(=O)NCC(O)CO)c(N3CCC[C@@H](N)C3)n2Cc2ccccc2Cl)n(C)c1=O (stereo partly shown) [Example 32] |
| 0.0041 | COCCNC(=O)c1c(N2CCC[C@@H](N)C2)n(Cc2cc(F)ccc2Cl)c2c(=O)n(C)c(=O)n(C)c12 [Example 41] |
| 0.0057 | Cn1c(=O)c2c(c(C(=O)NCC(F)(F)F)c(N3CCC[C@@H](N)C3)n2Cc2cc(F)ccc2Cl)n(C)c1=O [Example 42] |
| 0.009 | Cn1c(=O)c2c(c(C(=O)N3CCOCC3)c(N3CCC[C@@H](N)C3)n2Cc2cc(F)ccc2Cl)n(C)c1=O [Example 44] |
| 0.031 | COCc1c(N2CCC[C@@H](N)C2)n(Cc2ccccc2Cl)c2c(=O)n(C)c(=O)n(C)c12 [Example 56] |
| 0.056 | COc1ccc(-c2c(N3CCC[C@@H](N)C3)n(Cc3ccccc3Cl)c3c(=O)n(C)c(=O)n(C)c23)cc1 [Example 62] |
| 3.8 | Cn1c(=O)c2c(c(C#N)c(N3CCC[C@H](N)C3)n2Cc2cc(F)ccc2Cl)n(C)c1=O [Example 70, 6-[(3S)-3-Aminopiperidin-1-yl]-5-(2-chloro-5-fluorobenzyl)-1,3-dimethyl-2,4-dioxo-2,3,4,5-tetrahydro-1H-pyrrolo[3,2-d]pyrimidine-7-carbonitrile hydrochloride] |
